Results as given in PMC3456924, “Single-dose pharmacokinetic and toxicity analysis of pyrrole–imidazole polyamides in mice” (Cancer Chemotherapy and Pharmacology, 2012).
Entries after “also recorded” stand apart in the source; their conditions may differ. Where two headings read alike, the source gives them in different places. Blank lines part the entries; values can stand above or below the molecule they belong to.

Legend:
[1] = Plasma pharmacokinetics after a single IV tail vein injection; assay type: in vivo, BALB/C mice; conditions: for half-life / Cmax / AUC(0-inf) / clearance: iv; for concentration at 24 h: 24 h after single IV, read-out: average plasma concentration 24 h postinjection
Protocol: Pyrrole–imidazole polyamide pharmacokinetic studies were performed in 10- to 12-week-old female BALB/C mice (Charles River). Polyamides were solubilized in PBS (1) or PBS/DMSO (2) and administered via intravenous (IV) tail vein injection at concentrations of 7.5 and 5 mg/kg, respectively. For each experiment, groups of 3 animals were euthanized at 0.083, 0.25, 0.5, 1, 2, 4, 8, and 24 h after injection. Animals designated for the 4, 8, and 24 h time points were housed in metabolic cages for collection of urine and feces as described below. All animals used in the pharmacokinetic experiments were performed under an approved protocol at the City of Hope.
Concentrations of polyamides 1 and 2 were analyzed by LC/MS/MS using a Waters Acquity UPLC system (Milford, MA, USA) interfaced with a Waters Quattro Premier XE Mass Spectrometer. HPLC separation was achieved using a Jupiter 4u Proteo 90A 150 × 2.0 mm column (Phenomenex, Torrance, CA, USA) proceeded by a Phenomenex C8 guard column (Torrance, CA, USA). The column temperature was maintained at 30 °C. The mobile phase consisted of A (0.05 % acetic acid in water) and B (0.05 % acetic acid in acetonitrile). The following gradient program was used: 8 % B (0–1 min, 0.3 ml/min), 16 % B (3 min, 0.3 ml/min), 58 % B (6 min, 0.3 ml/min), 90 % B (7 min, 0.3 ml/min), and 8 % B (7.3 min, 0.3 ml/min). The total run time was 11.5 min. The auto-injector temperature was maintained at 5 °C. The strong needle wash solution was 5 % formic acid in MeOH/ACN (2:8) for both compounds, and the weak needle wash solution was 30 % MeOH in water for compound 1 and 50 % ACN in water for compound 2. The electrospray ionization source of the mass spectrometer was operated in positive ion mode with a cone gas flow of 50 L/hr and a desolvation gas flow of 700 L/hr. The capillary voltage was set to 3.2 kV, and the cone and collision cell voltages were optimized to 32 and 27 V for 1 and the INS 3. Voltages were optimized to 31 and 20 V for 2 and the INS 4. The source temperature was 125 °C, and the desolvation temperature was 470 °C. A solvent delay program was used from 0 to 4.0 min and from 6.1 to 11.5 min to minimize the mobile phase to flow to the source. MassLynx version 4.1 software was used for data acquisition and processing.
Plasma and urine samples were prepared for LC/MS/MS analysis by mixing 30 μL of plasma with 20 μL of 50 % MeOH and 50 % aqueous 1 % HOAc. The mixture was vortexed and mixed with an additional 120 μL of 0.5 % HOAc in MeOH/ACN (4:6) and 20 μL of 6.0 μg/mL INS in MeOH/1 % aqueous HOAc (1:1). The mixture was vortexed again for 2 min and centrifuged at the highest setting for 4 min. Next, 20 μL of the supernatant was transferred to a new tube and mixed with 180 μL of 50 % MeOH/ACN (4:6) and 50 % aqueous 1 % HOAc.
Standard curves were prepared mixing untreated plasma with 20 μL of 50 % MeOH and 50 % aqueous 1 % HOAc prepared with various concentrations of 1 and 2. Internal standards were added as described above.
Plasma pharmacokinetic parameters were derived from polyamide concentration profiles using both non-compartmental and compartmental methods. Non-compartmental analysis was performed according to statistical moment theory and the rule of linear trapezoids, while compartmental analysis was performed in ADAPT II [24]. Pharmacokinetic parameters estimated from the non-compartmental analysis include the maximum concentration (C max), the terminal elimination half-life (t 1/2), the mean residence time (MRT), the area under the concentration curve (AUC0–24h), the AUC extrapolated to infinity (AUC0–∞), and the clearance (CL). Additional plasma pharmacokinetic parameters determined from the compartmental analysis include the alpha and beta half-lives (t 1/2) and the apparent volume of distribution (V d). Tissue pharmacokinetic parameters were determined non-compartmentally and included the C max and AUC0–24h. […]

[2] = tested on: androgen receptor (AR) signaling; PSA mRNA in LNCaP prostate cancer cells; conditions: cited from earlier work
Aqueous solubility = assay type: physicochemical; conditions: 2 requires a polar aprotic cosolvent like DMSO for administration
[3] = design: method as in PMID 19413319; conditions: previous ADMET study; cited from earlier work
[4] = tested on: 5′-WGWWCW-3′ sequence (androgen response element DNA); design: method as in PMID 18459783, PMID 22080545, PMID 17566103; conditions: cited from earlier work
[5] = female, BALB/C, mouse, plasma, compartmental analysis, single IV, 7.5 mg/kg (1), 5 mg/kg (2)
[6] = female, BALB/C, mouse, plasma, non-compartmental analysis, single IV, 7.5 mg/kg (1), 5 mg/kg (2)
[7] = female, BALB/C, mouse, plasma, 7.5 mg/kg (1), 5 mg/kg (2)
[8] = plasma, compartmental analysis, single IV, 7.5 mg/kg (1), 5 mg/kg (2)
[9] = plasma, non-compartmental analysis, single IV, 7.5 mg/kg (1), 5 mg/kg (2)

- half-life ([1]; female, BALB/C, mouse, plasma, plasma, compartmental analysis, single IV, 7.5 mg/kg (1), 5 mg/kg (2), read-out: t 1/2 α (initial) (converted)): 0.5 h
- half-life ([1]; female, BALB/C, mouse, plasma, plasma, compartmental analysis, single IV, 7.5 mg/kg (1), 5 mg/kg (2), read-out: t 1/2 β (terminal) (converted)): 4.6 h
- half-life ([1]; female, BALB/C, mouse, plasma, plasma, non-compartmental analysis, single IV, 7.5 mg/kg (1), 5 mg/kg (2), read-out: Elimination t 1/2 (converted)): 5.2 h
- Cmax ([1]; female, BALB/C, mouse, plasma, compartmental analysis (2-compartment model), single IV, 7.5 mg/kg (1), 5 mg/kg (2)): 43600 ng/mL
- AUC(0-inf) [1, 5]: 67500 ng·h/mL
- clearance [1, 5]: 0.035 mL/min
- AUC(0-inf) [1, 6]: 77400 ng·h/mL
- clearance [1, 6]: 0.03 mL/min
- Cmax ([1]; female, BALB/C, mouse, plasma, non-compartmental analysis, single IV, 7.5 mg/kg (1), 5 mg/kg (2), mean ± S.D., n = 3): 49400 ± 11200 ng/mL
- concentration at 24 h [1, 7]: 210 ± 100 ng/mL
- Vd ([1]; female, BALB/C, mouse, plasma, compartmental analysis, single IV, 7.5 mg/kg (1), 5 mg/kg (2), read-out: V d): 0.0081 L
- AUC(0-t) [1, 6]: 75800 ng·h/mL
- MRT ([1]; female, BALB/C, mouse, plasma, non-compartmental analysis, single IV, 7.5 mg/kg (1), 5 mg/kg (2), read-out: MRT): 3.3 h
- maximum plasma concentration relative to effective concentration for PSA mRNA downregulation in cell culture ([1]; plasma C max vs cell culture effective concentration): over 3 times
SMILES: CN(CCCNC(=O)c1cccc(C(=O)O)c1)CCCNC(=O)c1cc(NC(=O)c2cc(NC(=O)c3cc(NC(=O)c4nc(NC(=O)[C@H](N)CCNC(=O)c5cc(NC(=O)c6cc(NC(=O)c7cc(NC(=O)c8nccn8C)cn7C)cn6C)cn5C)cn4C)cn3C)cn2C)cn1C [Polyamide 1]
- most active concentration for inhibition of DHT-induced genes ([2]; LNCaP cells co-treated with DHT): 7.4 µg/mL

SMILES: CC(=O)N[C@@H](CNC(=O)c1cc(NC(=O)c2cc(NC(=O)c3cc(NC(=O)c4nccn4C)cn3C)cn2C)cn1C)CC(=O)Nc1cn(C)c(C(=O)Nc2cc(C(=O)Nc3cc(C(=O)Nc4cc(C(=O)NCCCN(C)CCCNC(=O)c5cccc(C(=O)O)c5)n(C)c4)n(C)c3)n(C)c2)n1 [Polyamide 2]
- concentration at 24 h [1, 7]: 490 ± 200 ng/mL
- C max ([1]; plasma, compartmental analysis (2-compartment model), single IV, 7.5 mg/kg (1), 5 mg/kg (2)): 40200 ng/mL
- AUC0–∞ [1, 8]: 144800 ng·h/mL
- CL [1, 8]: 0.7 mL/h
- Vd [1, 8]: 0.004 L
- t 1/2 α (initial) [1, 8]: 6 min
- t 1/2 β (terminal) [1, 8]: 4.2 h
- AUC0–t [1, 9]: 173500 ng·h/mL
- AUC0–∞ [1, 9]: 176500 ng·h/mL
- CL [1, 9]: 0.6 mL/h
- Elimination t 1/2 [1, 9]: 4.3 h
- MRT [1, 9]: 4.9 h
- C max ([1]; plasma, non-compartmental analysis, single IV, 7.5 mg/kg (1), 5 mg/kg (2), mean ± S.D., n = 3): 41300 ± 5900 ng/mL
- solubility in aqueous solutions (Aqueous solubility): less soluble than 1; also recorded: relatively poor aqueous solubility
- activity relative to polyamide 1 (AR-driven gene / PSA mRNA downregulation) ([2]; cell culture): tenfold increase; also recorded: equivalent activity to 1 at tenfold less concentration
- liver microsomal degradation [3]: resistant to liver microsomal degradation
- DNA-binding ability relative to polyamide 1 [4]: without significant changes to its DNA-binding ability
